Assay results as given in patent US12187709B2 (Genentech, Inc., priority 2021, dated 2025).

Legend:
c-Cbl (residues 47-435) = c-Cbl (residues 47-435) (Homo sapiens (Human), UniProt P22681); assay: c-Cbl SPR assay; assay type: binding; settings: 20° C.
How it was run: (§1)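 Binding was measured by SPR and fitted to a 1:1 model from multi-cycle kinetics with double referencing, 6 concentrations in 2-fold dilution. Alternatively, single-cycle titrations up to 500 nM (120 s contact) were fitted with kd fixed from a single-exponential fit of chaser-measured % compound bound versus time.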

[1] = target: Human Cbl-b (residues 40-426) (Homo sapiens (Human), UniProt Q13191); assay: Cbl-b SPR assay; assay type: binding; settings: for Fold of selectivity: C-cbl SPR Kd vs Cbl-b SPR Kd; for Kd: SPR, 20° C.
How it was run: as §1

c-Cbl = c-Cbl (Homo sapiens (Human), UniProt P22681); assay: C-Cbl LCK Ub TR-FRET assay (C-cbl Lck HTRF); assay type: biochemical
How it was run: (§2)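 Signal is read once the detection mix has stood 20 min at ambient temperature. Curves are anchored by DMSO as maximum and by omission of LCK as minimum.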

Cbl-b = Cbl-b (Homo sapiens (Human), UniProt Q13191); assay: Cbl-b LCK Ub TR-FRET assay (Cbl-b Lck HTRF); assay type: biochemical; settings: for IC50: Cbl-b LCK Ub TR-FRET; for fold-selectivity (Cbl-b over C-cbl) / (fold-selectivity) Cbl-b and C-Cbl Selectivity: ratio C-cbl Lck HTRF IC50 / Cbl-b Lck HTRF IC50
How it was run: as §2

Chain of Cbl-b (Q13191 40-426): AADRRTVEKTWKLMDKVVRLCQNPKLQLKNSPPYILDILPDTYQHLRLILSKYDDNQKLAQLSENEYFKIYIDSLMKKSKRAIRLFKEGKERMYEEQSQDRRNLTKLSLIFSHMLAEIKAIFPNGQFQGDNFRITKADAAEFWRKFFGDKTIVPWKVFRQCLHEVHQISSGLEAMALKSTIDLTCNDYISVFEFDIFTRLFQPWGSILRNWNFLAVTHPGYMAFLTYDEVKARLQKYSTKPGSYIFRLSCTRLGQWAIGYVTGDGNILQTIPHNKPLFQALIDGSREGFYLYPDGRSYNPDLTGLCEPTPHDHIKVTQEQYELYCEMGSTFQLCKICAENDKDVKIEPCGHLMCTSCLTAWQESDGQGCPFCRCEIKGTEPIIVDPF
Chain of Human Cbl-b (residues 40-426) (Q13191 40-426): as above
Chain of c-Cbl (residues 47-435) (P22681 47-435): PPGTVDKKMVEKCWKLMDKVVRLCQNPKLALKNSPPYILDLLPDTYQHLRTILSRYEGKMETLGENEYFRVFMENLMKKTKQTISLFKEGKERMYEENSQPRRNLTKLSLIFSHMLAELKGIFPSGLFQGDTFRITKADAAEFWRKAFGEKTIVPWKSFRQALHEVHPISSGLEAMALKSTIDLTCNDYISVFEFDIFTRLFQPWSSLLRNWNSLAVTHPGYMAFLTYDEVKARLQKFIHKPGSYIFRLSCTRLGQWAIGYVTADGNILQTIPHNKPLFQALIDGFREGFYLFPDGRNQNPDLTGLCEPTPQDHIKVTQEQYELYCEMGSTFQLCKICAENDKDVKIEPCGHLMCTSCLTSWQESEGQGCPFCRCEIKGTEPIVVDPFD
Chain of c-Cbl (P22681 47-435): as above

| SMILES | Kd (c-Cbl (residues 47-435)) [nM] | Fold of selectivity [1] [×] | Kd [1] [nM] | IC50 (c-Cbl) [nM] | IC50 (Cbl-b) [nM] | fold-selectivity (Cbl-b over C-cbl) (Cbl-b) | IC50 (Cbl-b; Example 121) [nM] | (fold-selectivity) Cbl-b and C-Cbl Selectivity (Cbl-b) [x] |
| --- | --- | --- | --- | --- | --- | --- | --- | --- |
| CCCNCc1cc2c(c(C(F)(F)F)c1)CN(c1cccc([C@]3(c4nncn4C)C[C@H](OC)C3)c1)C2=O [Compound 511, 2-(3-((1r,3r)-3-methoxy-1-(4-methyl-4H-1,2,4-triazol-3-yl)cyclobutyl)phenyl)-6-((propylamino)methyl)-4-(trifluoromethyl)isoindolin-1-one] | 65 | 13 | 5 | 61 | – | – | 12 | 5.0 |
| Cn1cnnc1C1(c2cc(C3CC3)nc(N3Cc4c(cc(CNC5(C)CCC5)cc4C(F)(F)F)C3=O)c2)CC(F)(F)C1 [Compound 16, 2-(6-cyclopropyl-4-(3,3-difluoro-1-(4-methyl-4H-1,2,4-triazol-3-yl)cyclobutyl)pyridin-2-yl)-6-(((1-methylcyclobutyl)amino)methyl)-4-(trifluoromethyl)isoindolin-1-one] | 0.34 | 1.3 | 0.25 | 5.2 | 6.9 | (0.75x) | – | – |
| CO[C@H]1C[C@@](c2cc(OC3CCCC3)cc(N3Cc4c(cc(CNC5(C)CCC5)cc4C(F)(F)F)C3=O)c2)(c2nncn2C)C1 [Compound 208, 2-(3-(cyclopentyloxy)-5-((1s,3s)-3-methoxy-1-(4-methyl-4H-1,2,4-triazol-3-yl)cyclobutyl)phenyl)-6-(((1-methylcyclobutyl)amino)methyl)-4-(trifluoromethyl)isoindolin-1-one] | 1500 | 6.0 | 250 | 2200 | 450 | 4.8x | – | – |
| Cn1cnnc1C1(c2cc(OC3CCCC3)nc(N3Cc4c(cc(CNC5(C)CCC5)cc4C(F)(F)F)C3=O)c2)CC2(COC2)C1 [Compound 193] | 320 | 27 | 12 | 420 | 36 | 11x | – | – |
| COc1cc(N2Cc3c(cc(CNC4(C)CCC4)cc3C(F)(F)F)C2=O)cc([C@]2(c3nncn3C)C[C@@H](OC)C2)c1 [Compound 200, 2-(3-methoxy-5-((1s,3s)-3-methoxy-1-(4-methyl-4H-1,2,4-triazol-3-yl)cyclobutyl)phenyl)-6-(((1-methylcyclobutyl)amino)methyl)-4-(trifluoromethyl)isoindolin-1-one] | 19 | 2.4 | 8 | 40 | 24 | 1.7x | – | – |
| CCNc1cc([C@]2(c3nncn3C)C[C@@H](C)C2)cc(N2Cc3c(cc(CNC4(C)CCC4)cc3C(F)F)C2=O)n1 [Compound 274, 4-(difluoromethyl)-2-(6-(ethylamino)-4-((1s,3s)-3-methyl-1-(4-methyl-4H-1,2,4-triazol-3-yl)cyclobutyl)pyridin-2-yl)-6-(((1-methylcyclobutyl)amino)methyl)isoindolin-1-one] | 0.2 | 2.0 | 0.1 | 6.9 | 7.5 | 0.91x | – | – |
| CO[C@H]1C[C@@](c2cccc(N3Cc4c(cc([C@H](C)NC5(C)CCC5)cc4C(F)(F)F)C3=O)c2)(c2nncn2C)C1 (single isomer, unassigned) [Compound 176] | 280 | 6.8 | 41 | 220 | 62 | 3.4x | – | – |
| CO[C@H]1C[C@](c2cc(NCCC#N)cc(N3Cc4c(cc(CNC5(C)CCC5)cc4C(F)(F)F)C3=O)c2)(c2nncn2C)C1 [Compound 216, 3-((3-((1r,3r)-3-methoxy-1-(4-methyl-4H-1,2,4-triazol-3-yl)cyclobutyl)-5-(6-(((1-methylcyclobutyl)amino)methyl)-1-oxo-4-(trifluoromethyl)isoindolin-2-yl)phenyl)amino)propanenitrile] | 51 | 11 | 4.7 | 61 | 14 | 4.2x | – | – |
| CO[C@H]1C[C@H]([C@@H](c2cccc(N3Cc4c(cc(CN5CCN(C)C[C@@H]5C(C)C)cc4C(F)(F)F)C3=O)c2)c2nncn2C)C1 (single isomer, unassigned) [Compound 15] | 11000 | 14 | 770 | 4900 | 1900 | (1.6x) | – | – |
| CO[C@H]1C[C@](c2cccc(N3Cc4c(cc(CNCC5CC56CC6(F)F)cc4C(F)(F)F)C3=O)c2)(c2nncn2C)C1 (some centres unmarked) [Compound 510] | 60 | 18 | 3.4 | 51 | – | – | 12 | 4.2 |

Next, values leading:

| Kd (c-Cbl (residues 47-435)) [nM] | Fold of selectivity [1] [×] | Kd [1] [nM] | IC50 (c-Cbl) [nM] | IC50 (Cbl-b) [nM] | fold-selectivity (Cbl-b over C-cbl) (Cbl-b) | IC50 (Cbl-b; Example 121) [nM] | (fold-selectivity) Cbl-b and C-Cbl Selectivity (Cbl-b) [x] | SMILES |
| --- | --- | --- | --- | --- | --- | --- | --- | --- |
| 13 | 6.6 | 1.9 | 17 | 9.8 | 1.8x | – | – | COC1CC([C@@H](c2cccc(N3Cc4c(cc(CNC5(C)CCC5)cc4C(F)(F)F)C3=O)c2)c2nncn2C)C1 (single isomer, unassigned) [Compound 134] |
| 790 | 16 | 46 | 490 | – | 9.0x | – | – | Cn1cnnc1[C@H](c1cccc(N2Cc3c(cc(CNC4(C)CCC4)cc3C(F)(F)F)C2=O)c1)[C@H]1C[C@H](C)C1 (single isomer, unassigned) [Compound 376, 2-(3-((S)-(4-methyl-4H-1,2,4-triazol-3-yl)((1r,3S)-3-methylcyclobutyl)methyl)phenyl)-6-(((1-methylcyclobutyl)amino)methyl)-4-(trifluoromethyl)isoindolin-1-one] |
| 43 | 13 | 3.6 | 39 | 11 | 3.5x | – | – | Cn1cnnc1[C@@H](c1cccc(N2Cc3c(cc(CNC4(C)CCC4)cc3C(F)(F)F)C2=O)c1)C1CC(F)C1 (single isomer, unassigned) [Compound 129] |
| 3.2 | 6.1 | 0.5 | 6.3 | – | – | 5.9 | 1.1 | Cn1cnnc1[C@@H](c1cccc(N2Cc3c(cc(CNC4(C)CCC4)cc3C(F)F)C2=O)c1)C1CC(F)C1 (single isomer, unassigned) [Compound 459] |
| 13 | 5.5 | 2.5 | 35 | 13 | (2.7x) | – | – | CO[C@]1(C)C[C@@](c2cccc(N3Cc4c(cc(CNC5(C)CCC5)cc4C(F)(F)F)C3=O)c2)(c2nncn2C)C1 [Compound 28, 2-(3-((1r,3r)-3-methoxy-3-methyl-1-(4-methyl-4H-1,2,4-triazol-3-yl)cyclobutyl)phenyl)-6-(((1-methylcyclobutyl)amino)methyl)-4-(trifluoromethyl)isoindolin-1-one] |
| 0.25 | 2.5 | 0.1 | 4.3 | 4 | 1.1x | – | – | C[C@@H](NC1(C)CCC1)c1cc(Cl)c2c(c1)C(=O)N(c1cccc([C@]3(c4nncn4C)C[C@H](F)C3)c1)C2 (single isomer, unassigned) [Compound 311] |
| 58 | 13 | 4.6 | 110 | 30 | 3.4x | – | – | CCO[C@H]1C[C@](c2cccc(N3Cc4c(cc(CNC5(C)CCC5)cc4C(F)(F)F)C3=O)c2)(c2nncn2C)C1 [Compound 179, 2-(3-((1r,3r)-3-ethoxy-1-(4-methyl-4H-1,2,4-triazol-3-yl)cyclobutyl)phenyl)-6-(((1-methylcyclobutyl)amino)methyl)-4-(trifluoromethyl)isoindolin-1-one] |
| 2.1 | 8.4 | 0.27 | 8.5 | 6.1 | 1.4x | – | – | Cl.Cn1cnnc1[C@]1(c2cccc(N3Cc4c(cc(CNC5(C)CCC5)cc4C(F)(F)F)C3=O)c2)C[C@@H](Cl)C1 [Compound 137, 2-(3-((1r,3r)-3-chloro-1-(4-methyl-4H-1,2,4-triazol-3-yl)cyclobutyl)phenyl)-6-(((1-methylcyclobutyl)amino)methyl)-4-(trifluoromethyl)isoindolin-1-one hydrochloride] |
| 320 | 2.4 | 110 | 290 | 110 | 2.6x | – | – | CCCN1CC(c2cc3c(c(C(F)(F)F)c2)CN(c2cccc([C@H](c4nncn4C)C4COC4)c2)C3=O)C1 [Compound 386, (R)-2-(3-((4-methyl-4H-1,2,4-triazol-3-yl)(oxetan-3-yl)methyl)phenyl)-6-(1-propylazetidin-3-yl)-4-(trifluoromethyl)isoindolin-1-one] |
| 2300 | 9.6 | 250 | 1600 | 280 | 5.6x | – | – | Cn1cnnc1[C@@H](c1cccc(N2Cc3c(Cl)cc(CNC4(C)CCC4)cc3C2=O)c1)[C@H]1C[C@H](F)C1 (single isomer, unassigned) [Compound 318] |
